Laboratory results: ChEMBL document CHEMBL6103581, “Identification of Thieno[3,2-d]pyrimidine derivatives as potent and selective Janus Kinase 1 inhibitors” (Eur J Med Chem, 2025)
Active and inactive are the calls of the source. The rule behind the calls is not given here.

Assays:
BaF3 = test: Antiproliferative activity against mouse parental BaF3 cells assessed as cell growth inhibition incubated for 72 hrs by Cell-TiterGlo assay; assay type: functional
[1] = Antiproliferative activity against mouse Ba/F3-TEL-JAK1 cells assessed as cell growth inhibition incubated for 72 hrs by Cell-TiterGlo assay; assay type: functional
NCI-H1975 [2] = test: Antiproliferative activity against human NCI-H1975 cells assessed as cell growth inhibition incubated for 72 hrs by Cell-TiterGlo assay; assay type: functional
NCI-H2087 [3] = test: Antiproliferative activity against human NCI-H2087 cells assessed as cell growth inhibition incubated for 72 hrs by Cell-TiterGlo assay; assay type: functional
[4] = target: Tyrosine-protein kinase JAK2 (Homo sapiens, UniProt O60674); test: Inhibition of N-terminal GST-tagged human recombinant JAK2 (804 to end residues) extracted from baculovirus infected in Sf9 cells using IGF1Rtide as substrate preincubated for 15 min followed by substrate addition and measured after 1 hr by ADP-Glo kinase assay
Tyrosine-protein kinase JAK2, sequence (O60674 whole entry): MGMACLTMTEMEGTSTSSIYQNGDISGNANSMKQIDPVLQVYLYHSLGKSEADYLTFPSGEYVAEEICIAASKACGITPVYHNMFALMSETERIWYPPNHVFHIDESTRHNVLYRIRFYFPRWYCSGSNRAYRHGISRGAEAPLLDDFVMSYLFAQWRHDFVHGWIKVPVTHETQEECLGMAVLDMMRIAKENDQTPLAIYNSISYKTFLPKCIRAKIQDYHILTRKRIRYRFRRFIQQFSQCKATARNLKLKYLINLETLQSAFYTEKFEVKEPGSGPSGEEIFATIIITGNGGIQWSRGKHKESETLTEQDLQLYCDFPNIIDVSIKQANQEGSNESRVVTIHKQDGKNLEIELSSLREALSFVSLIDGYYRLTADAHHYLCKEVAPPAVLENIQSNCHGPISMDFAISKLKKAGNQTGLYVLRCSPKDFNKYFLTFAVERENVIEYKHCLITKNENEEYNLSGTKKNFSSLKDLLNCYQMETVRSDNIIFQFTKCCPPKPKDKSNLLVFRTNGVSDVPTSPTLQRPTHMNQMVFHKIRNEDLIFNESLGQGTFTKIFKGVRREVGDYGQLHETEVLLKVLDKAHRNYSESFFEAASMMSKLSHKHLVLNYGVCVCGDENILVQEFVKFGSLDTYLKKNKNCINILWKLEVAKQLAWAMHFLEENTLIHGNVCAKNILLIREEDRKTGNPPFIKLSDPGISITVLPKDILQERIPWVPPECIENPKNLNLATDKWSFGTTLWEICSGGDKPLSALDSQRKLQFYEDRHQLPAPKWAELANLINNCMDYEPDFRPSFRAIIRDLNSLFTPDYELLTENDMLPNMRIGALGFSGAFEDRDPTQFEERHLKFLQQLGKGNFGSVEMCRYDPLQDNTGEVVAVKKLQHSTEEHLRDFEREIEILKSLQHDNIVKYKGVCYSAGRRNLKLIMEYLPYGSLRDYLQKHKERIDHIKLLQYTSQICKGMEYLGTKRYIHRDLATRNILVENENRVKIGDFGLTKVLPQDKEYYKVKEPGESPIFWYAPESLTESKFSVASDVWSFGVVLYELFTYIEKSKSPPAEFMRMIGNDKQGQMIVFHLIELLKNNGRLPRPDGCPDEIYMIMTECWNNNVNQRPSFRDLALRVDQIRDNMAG

[5] = target: T1, Tyrosine-protein kinase JAK3 (Homo sapiens, UniProt P52333); test: Inhibition of N-terminal GST-tagged human recombinant JAK3 (781 to end residues) extracted from baculovirus infected in Sf9 cells using Poly(4:1 Glu, Tyr) as substrate preincubated for 15 min followed by substrate addition and measured after 1 hr by ADP-Glo kinase assay
T1 sequence (P52333 whole entry): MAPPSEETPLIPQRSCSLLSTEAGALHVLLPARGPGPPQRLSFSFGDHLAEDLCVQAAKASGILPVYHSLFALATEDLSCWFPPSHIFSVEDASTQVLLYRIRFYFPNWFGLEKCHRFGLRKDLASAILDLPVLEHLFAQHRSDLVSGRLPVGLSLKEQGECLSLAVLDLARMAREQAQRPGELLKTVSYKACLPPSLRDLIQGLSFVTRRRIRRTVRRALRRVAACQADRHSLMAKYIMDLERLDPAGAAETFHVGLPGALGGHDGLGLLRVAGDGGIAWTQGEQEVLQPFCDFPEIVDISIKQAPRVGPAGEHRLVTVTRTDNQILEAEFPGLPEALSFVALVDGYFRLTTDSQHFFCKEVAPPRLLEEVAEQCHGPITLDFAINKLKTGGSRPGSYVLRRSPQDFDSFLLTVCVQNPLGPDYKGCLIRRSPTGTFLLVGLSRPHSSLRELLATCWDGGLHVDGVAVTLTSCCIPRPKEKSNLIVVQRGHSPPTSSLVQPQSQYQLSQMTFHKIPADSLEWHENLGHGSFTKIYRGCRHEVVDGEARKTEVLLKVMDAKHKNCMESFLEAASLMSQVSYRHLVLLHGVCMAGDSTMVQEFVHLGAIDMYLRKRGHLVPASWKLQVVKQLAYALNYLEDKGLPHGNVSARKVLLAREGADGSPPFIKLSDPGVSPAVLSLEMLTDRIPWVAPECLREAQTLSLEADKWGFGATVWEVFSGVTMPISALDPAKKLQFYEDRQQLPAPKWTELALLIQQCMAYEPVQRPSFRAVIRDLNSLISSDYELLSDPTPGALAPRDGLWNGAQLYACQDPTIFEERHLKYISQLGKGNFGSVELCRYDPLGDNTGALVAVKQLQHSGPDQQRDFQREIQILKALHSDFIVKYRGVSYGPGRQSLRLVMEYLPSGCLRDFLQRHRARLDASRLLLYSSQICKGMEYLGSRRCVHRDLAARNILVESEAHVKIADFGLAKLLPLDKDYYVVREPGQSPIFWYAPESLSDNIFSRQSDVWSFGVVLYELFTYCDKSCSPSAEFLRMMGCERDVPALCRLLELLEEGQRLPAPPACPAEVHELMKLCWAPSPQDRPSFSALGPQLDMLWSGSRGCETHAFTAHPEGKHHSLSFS

NCI-H1975 [6] = test: Antiproliferative activity against human NCI-H1975 cells overexpressing JAK1 assessed as suppression of cell growth incubated for 72 hrs by Cell-TiterGlo assay; assay type: functional, cell-based
NCI-H2087 [7] = test: Antiproliferative activity against human NCI-H2087 cells overexpressing JAK1 assessed as suppression of cell growth incubated for 72 hrs by Cell-TiterGlo assay; assay type: functional, cell-based
UMUC3 = test: Antiproliferative activity against human UMUC3 cells overexpressing JAK1 assessed as suppression of cell growth incubated for 72 hrs by Cell-TiterGlo assay; assay type: functional, cell-based
U2OS = test: Antiproliferative activity against human U2OS cells overexpressing JAK1 assessed as suppression of cell growth incubated for 72 hrs by Cell-TiterGlo assay; assay type: functional, cell-based
HT-29 = test: Antiproliferative activity against human HT-29 cells overexpressing JAK1 assessed as suppression of cell growth incubated for 72 hrs by Cell-TiterGlo assay; assay type: functional, cell-based
HCT-116 = test: Antiproliferative activity against human HCT-116 cells overexpressing JAK1 assessed as suppression of cell growth incubated for 72 hrs by Cell-TiterGlo assay; assay type: functional, cell-based
[8] = target: Signal transducer and activator of transcription 3 (Homo sapiens) (UniProt P40763); test: Inhibition of STAT3 phosphorylation in human NCI-H1975 cells incubated for 1 hr by Western blot analysis; assay type: cell-based; conditions: dose 1-10 µM
Signal transducer and activator of transcription 3 (Homo sapiens), sequence (P40763 whole entry): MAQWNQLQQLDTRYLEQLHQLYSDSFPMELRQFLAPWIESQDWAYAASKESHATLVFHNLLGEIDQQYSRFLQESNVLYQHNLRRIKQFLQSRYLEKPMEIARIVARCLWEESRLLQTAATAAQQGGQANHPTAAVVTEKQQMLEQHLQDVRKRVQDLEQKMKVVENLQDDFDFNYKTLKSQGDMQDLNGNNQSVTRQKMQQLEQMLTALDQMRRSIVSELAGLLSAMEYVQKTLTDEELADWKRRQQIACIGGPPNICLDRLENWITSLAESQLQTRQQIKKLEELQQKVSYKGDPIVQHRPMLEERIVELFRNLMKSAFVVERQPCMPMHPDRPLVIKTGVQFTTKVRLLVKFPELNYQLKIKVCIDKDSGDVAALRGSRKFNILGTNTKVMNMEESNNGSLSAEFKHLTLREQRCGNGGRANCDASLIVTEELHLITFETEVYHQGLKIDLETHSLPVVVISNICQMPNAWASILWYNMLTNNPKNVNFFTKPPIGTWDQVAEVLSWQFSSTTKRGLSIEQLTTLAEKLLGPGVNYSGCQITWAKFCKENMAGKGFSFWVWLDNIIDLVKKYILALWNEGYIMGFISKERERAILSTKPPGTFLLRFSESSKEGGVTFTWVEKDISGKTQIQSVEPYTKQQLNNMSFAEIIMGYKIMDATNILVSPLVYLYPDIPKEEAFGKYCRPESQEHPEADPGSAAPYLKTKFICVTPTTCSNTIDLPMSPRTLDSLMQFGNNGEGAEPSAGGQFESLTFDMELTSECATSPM

[9] = target: Signal transducer and activator of transcription 3 (Homo sapiens) (UniProt P40763); test: Inhibition of STAT3 phosphorylation in human NCI-H2087 cells incubated for 1 hr by Western blot analysis; assay type: cell-based; conditions: dose 1-10 µM
NCI-H1975 [10] = test: Inhibition of colony formation in human NCI-H1975 cells at 10 uM incubated for 14 days by crystal violet staining based 2D colony formation assay; assay type: functional, cell-based; conditions: time 14.0 day
NCI-H2087 [11] = test: Inhibition of colony formation in human NCI-H2087 cells at 10 uM incubated for 14 days by crystal violet staining based 2D colony formation assay; assay type: functional, cell-based; conditions: time 14.0 day
NCI-H1975 [12] = test: Induction of cell cycle arrest in human NCI-H1975 cells assessed as accumulation of cells at G2/M phase at 1 to 10 uM incubated for 24 hrs by propidium iodide/RNase staining based analysis; assay type: functional; conditions: dose 1-10 µM
NCI-H2087 [13] = test: Induction of cell cycle arrest in human NCI-H2087 cells assessed as accumulation of cells at G2/M phase at 1 to 10 uM incubated for 24 hrs by propidium iodide/RNase staining based analysis; assay type: functional; conditions: dose 1-10 µM
NCI-H1975 [14] = test: Induction of apoptosis in human NCI-H1975 cells at 1 to 10 uM incubated for 24 hrs by Annexin V/Propidium iodide staining based analysis; assay type: functional, cell-based; conditions: dose 1-10 µM
NCI-H2087 [15] = test: Induction of apoptosis in human NCI-H2087 cells at 1 to 10 uM incubated for 24 hrs by Annexin V/Propidium iodide staining based analysis; assay type: functional, cell-based; conditions: dose 1-10 µM
NCI-H1975 [16] = test: Synergistic antiproliferative activity against human NCI-H1975 cells assessed as cell growth inhibition measured after 48 hrs in presence of osimertinib by celltiterglo analysis; assay type: functional, cell-based
NCI-H1975 [17] = test: Upregulation of STAT3 phosphorylation level in human NCI-H1975 cells; assay type: functional, cell-based
NCI-H2087 [18] = test: Upregulation of STAT3 phosphorylation level in human NCI-H2087 cells; assay type: functional, cell-based
NCI-H1975 [19] = test: Inhibition of colony formation in human NCI-H1975 cells at 10 uM incubated for 14 days by crystal violet staining based 2D colony formation assay relative to control; assay type: functional; conditions: NCI-H1975, 336 h, time 14 day
NCI-H2087 [20] = test: Inhibition of colony formation in human NCI-H2087 cells at 10 uM incubated for 14 days by crystal violet staining based 2D colony formation assay relative to control; assay type: functional; conditions: NCI-H2087, 336 h, time 14 day

GI50 (NCI-H1975 [2]) [µM] | GI50 (NCI-H2087 [3]) [µM] | IC50 [4] [µM] | IC50 [5] [µM] | inhibition [8] | inhibition [9] | SMILES | GI50 (BaF3) [µM] | GI50 [1] [µM] | Activity (NCI-H1975 [12]) | Activity (NCI-H2087 [13]) | Activity (NCI-H1975 [14]) | Activity (NCI-H2087 [15]) | Activity (NCI-H1975 [16]) | other results
5.26 | 1.51 | 1.6 | 0.069 |  |  | COc1nn(C)cc1Nc1ncc2scc(-c3cccc(NC(=O)[C@H]4CCCN4)c3)c2n1 | 3.31 | 0.744 |  |  |  |  |  | 
> 50 | > 44 | 0.295 | 0.05 |  |  | COc1nn(C)cc1Nc1ncc2scc(-c3cccc(NC(C)=O)c3)c2n1 | 4.16 | 0.331 |  |  |  |  |  | 
3.19 | 5.65 | 2.75 | 4.9 | Dose-dependent-effect | Dose-dependent-effect | Cc1nn(C)cc1Nc1ncc2scc(-c3cccc(NC(=O)[C@@H](C)N4CCN(C)CC4)c3)c2n1 | 2.91 | 0.45 | Active | Active | Active | Active | Active | Activity (NCI-H1975 [6]): Active; Activity (NCI-H2087 [7]): Active; Activity (UMUC3): Active; Activity (U2OS): Active; Activity (HT-29): Active; Activity (HCT-116): Active; inhibition (NCI-H1975 [10]): Active; inhibition (NCI-H2087 [11]): Active; Activity (NCI-H1975 [17]): Active; Activity (NCI-H2087 [18]): Active
4.49 | 4.6 | 0.154 | 0.068 |  |  | COc1nn(C)cc1Nc1ncc2scc(-c3cccc(N)c3)c2n1 | 1.01 | 0.313 |  |  |  |  |  | 
6.67 | 5.96 | 0.759 | 1.6 | Dose-dependent-effect | Dose-dependent-effect | COc1nn(C)cc1Nc1ncc2scc(-c3cccc(NC(=O)[C@@H](C)N4CCN(CCO)CC4)c3)c2n1 | 0.614 | 0.193 | Active | Active | Active | Active | Active | inhibition at 10 µM (NCI-H1975 [19]): 100%; inhibition at 10 µM (NCI-H2087 [20]): 100%
10.2 | 13.1 | 3.02 | 0.248 |  |  | COc1nn(C)cc1Nc1ncc2scc(-c3cccc(NC(=O)[C@H]4CCCN4C(C)=O)c3)c2n1 | 4.06 | 0.897 |  |  |  |  |  | 
